{"source": "patent US20260265251A1", "about": "(priority 2023, published 2026)"}
{"system": "SK-MEL-3 cells", "experiment": "SK-MEL-3 cell proliferation assay", "type": "cell-based", "conditions": "Homo sapiens, SK-MEL3, 72 h, read-out: SK-MEL-3 IC50", "units": {"IC50": "nM"}}
{"smiles": "N#Cc1ccc(N2CCc3nc4[nH]c(=O)[nH]c4cc3C2)cc1F", "note": "[Example 53, 7-(3-fluoro-4-cyanophenyl)-1,3,5,6,7,8-hexahydro-2H-imidazo[4,5-b][1,6]naphthyridin-2-one]", "IC50": 9.6}
{"system": "SK-MEL-3 cells", "experiment": "SK-MEL-3 cell proliferation assay", "type": "cell-based", "conditions": "Homo sapiens, SK-MEL3; SK-MEL-3 cells, 72 hours, CellTiter-Glo; read-out: SK-MEL-3 IC50", "units": {"IC50": "nM"}}
{"smiles": "O=c1[nH]c2cc3cc(-c4cn(C(F)F)nc4Cl)ccc3nc2[nH]1", "note": "[Example 12, 7-(3-chloro-1-(difluoromethyl)-1H-pyrazol-4-yl)-1,3-dihydro-2H-imidazo[4,5-b]quinolin-2-one]", "IC50": 0.3}
{"smiles": "Cc1cc(F)ccc1-c1ccc2nc3[nH]c(=O)[nH]c3cc2c1", "note": "[Example 4, 7-(4-fluoro-2-methylphenyl)-1,3-dihydro-2H-imidazo[4,5-b]quinolin-2-one]", "IC50": 1.7}
{"smiles": "N#Cc1ccc(-c2ccc3nc4[nH]c(=O)[nH]c4cc3c2Cl)cc1", "note": "[Example 75, 8-chloro-7-(4-cyanophenyl)-1,3-dihydro-2H-imidazo[4,5-b]quinolin-2-one]", "IC50": 0.5}
{"smiles": "O=c1[nH]c2cc3c(C(F)(F)F)c(-c4ccc(F)cc4)ccc3nc2[nH]1", "note": "[Example 84, 7-(4-fluorophenyl)-8-(trifluoromethyl)-1,3-dihydro-2H-imidazo[4,5-b]quinolin-2-one]", "IC50": 1.2}
{"smiles": "N#Cc1cnc(N2CCc3nc4[nH]c(=O)[nH]c4cc3C2)c(Cl)c1", "note": "[Example 56, 7-(3-chloro-5-cyanopyridin-2-yl)-1,3,5,6,7,8-hexahydro-2H-imidazo[4,5-b][1,6]naphthyridin-2-one]", "IC50": 10.6}
{"smiles": "COc1ccc(-c2ccc3nc4[nH]c(=O)[nH]c4cc3c2)c(Cl)n1", "note": "[Example 7, 7-(2-chloro-6-methoxypyridin-3-yl)-1,3-dihydro-2H-imidazo[4,5-b]quinolin-2-one]", "IC50": 0.4}
{"smiles": "O=c1[nH]c2cc3c(C(F)(F)F)c(-c4ccccc4)ccc3nc2[nH]1", "note": "[Example 80, 7-phenyl-8-(trifluoromethyl)-1,3-dihydro-2H-imidazo[4,5-b]quinolin-2-one]", "IC50": 0.5}
{"smiles": "O=c1[nH]c2cc3c(Cl)c(N4CCC5(CC4)CC5)ccc3nc2[nH]1", "note": "[Example 81, 8-chloro-7-(6-azaspiro[2.5]octan-6-yl)-1,3-dihydro-2H-imidazo[4,5-b]quinolin-2-one]", "IC50": 9.7}
{"smiles": "COc1c(-c2ccc(F)cc2Cl)ccc2nc3[nH]c(=O)[nH]c3cc12", "note": "[Example 85, 7-(2-chloro-4-fluorophenyl)-8-methoxy-1,3-dihydro-2H-imidazo[4,5-b]quinolin-2-one]", "IC50": 0.3}
{"smiles": "O=c1[nH]c2cc3cc(-c4ccc(F)cc4C(F)(F)F)ccc3nc2[nH]1", "note": "[Example 5, 7-(4-fluoro-2-(trifluoromethylphenyl))-1,3-dihydro-2H-imidazo[4,5-b]quinolin-2-one]", "IC50": 2.8}
{"smiles": "COc1ncc(N2CCc3nc4[nH]c(=O)[nH]c4cc3C2)cc1C(F)(F)F", "note": "[Example 91, 7-(6-methoxy-5-(trifluoromethyl)pyridin-3-yl)-1,3,5,6,7,8-hexahydro-2H-imidazo[4,5-b][1,6]naphthyridin-2-one]", "IC50": 281}
{"smiles": "O=c1[nH]c2cc3c(nc2[nH]1)CCN(c1cccc(OC(F)(F)F)c1)C3", "note": "[Example 55, 7-(3-(trifluoromethoxy)phenyl)-1,3,5,6,7,8-hexahydro-2H-imidazo[4,5-b][1,6]naphthyridin-2-one]", "IC50": 15.6}
{"smiles": "Cn1c(=O)[nH]c2nc3ccc(-c4ccc(F)cc4)c(Cl)c3cc21", "note": "[Example 93, 8-chloro-7-(4-fluorophenyl)-1-methyl-1,3-dihydro-2H-imidazo[4,5-b]quinolin-2-one]", "IC50": 8.7}
{"smiles": "COc1ccc(-c2ccc3nc4[nH]c(=O)[nH]c4cc3c2Cl)cn1", "note": "[Example 72, 8-chloro-7-(6-methoxypyridin-3-yl)-1,3-dihydro-2H-imidazo[4,5-b]quinolin-2-one]", "IC50": 1}
{"smiles": "O=c1[nH]c2cc3c(Cl)c(-c4ccc(F)cc4Cl)ccc3nc2[nH]1", "note": "[Example 83, 8-chloro-7-(2-chloro-4-fluorophenyl)-1,3-dihydro-2H-imidazo[4,5-b]quinolin-2-one]", "IC50": 0.4}
{"smiles": "O=c1[nH]c2cc3c(nc2[nH]1)CCN(c1cccc(F)c1)C3", "note": "[Example 49, 7-(3-fluorophenyl)-1,3,5,6,7,8-hexahydro-2H-imidazo[4,5-b][1,6]naphthyridin-2-one]", "IC50": 1.8}
{"smiles": "O=c1[nH]c2cc3cc(-c4ccc(Cl)nc4Cl)ccc3nc2[nH]1", "note": "[Example 18, 7-(2,6-dichloropyridin-3-yl)-1,3-dihydro-2H-imidazo[4,5-b]quinolin-2-one]", "IC50": 0.6}
{"smiles": "O=c1[nH]c2cc3cc(-c4ncc(F)cc4Cl)ccc3nc2[nH]1", "note": "[Example 10, 7-(3-chloro-5-fluoropyridin-2-yl)-1,3-dihydro-2H-imidazo[4,5-b]quinolin-2-one]", "IC50": 1.8}
{"smiles": "O=c1[nH]c2cc3c(Cl)c(-c4ncc(F)cn4)ccc3nc2[nH]1", "note": "[Example 71, 8-chloro-7-(5-fluoropyrimidin-2-yl)-1,3-dihydro-2H-imidazo[4,5-b]quinolin-2-one]", "IC50": 8.2}
{"smiles": "Cc1ccc(-c2ccc3nc4[nH]c(=O)oc4cc3c2Cl)cc1", "note": "[Example 94, 8-chloro-7-(p-tolyl)oxazolo[4,5-b]quinolin-2(3H)-one]", "IC50": 258}
{"smiles": "O=c1[nH]c2cc3c(Cl)c(-c4ccc(Cl)nn4)ccc3nc2[nH]1", "note": "[Example 73, 8-chloro-7-(6-chloropyridazin-3-yl)-1,3-dihydro-2H-imidazo[4,5-b]quinolin-2-one]", "IC50": 1.6}
{"smiles": "O=c1[nH]c2cc3cc(-c4c(Cl)cnn4C(F)F)ccc3nc2[nH]1", "note": "[Example 16, 7-(4-chloro-1-(difluoromethyl)-1H-pyrazol-5-yl)-1,3-dihydro-2H-imidazo[4,5-b]quinolin-2-one]", "IC50": 1.6}
{"smiles": "COc1cc(F)ccc1-c1ccc2nc3[nH]c(=O)[nH]c3cc2c1", "note": "[Example 6, 7-(4-fluoro-2-methoxyphenyl)-1,3-dihydro-2H-imidazo[4,5-b]quinolin-2-one]", "IC50": 3.6}
{"smiles": "Cc1ccc(-c2ccc3nc4[nH]c(=O)[nH]c4cc3c2)c(Cl)c1", "note": "[Example 25, 7-(2-chloro-4-methylophenyl)-1,3-dihydro-2H-imidazo[4,5-b]quinolin-2-one]", "IC50": 2.9}
{"smiles": "O=c1[nH]c2cc3c(nc2[nH]1)CCN(c1ccc(Cl)cc1Cl)C3", "note": "[Example 47, 7-(2,4-dichlorophenyl)-1,3,5,6,7,8-hexahydro-2H-imidazo[4,5-b][1,6]naphthyridin-2-one]", "IC50": 2.7}
{"smiles": "O=c1[nH]c2cc3cc(-c4cnn(C(F)F)c4)ccc3nc2[nH]1", "note": "[Example 11, 7-(1-(difluoromethyl)-1H-pyrazol-4-yl)-1,3-dihydro-2H-imidazo[4,5-b]quinolin-2-one]", "IC50": 0.8}
{"smiles": "O=c1[nH]c2cc3cc(-c4cn(C(F)F)nc4C(F)(F)F)ccc3nc2[nH]1", "note": "[Example 31, 7-(1-(difluoromethyl)-3-(trifluoromethyl)-1H-pyrazol-4-yl)-1,3-dihydro-2H-imidazo[4,5-b]quinolin-2-one]", "IC50": 2.5}
{"smiles": "Nc1cc(-c2ccc3nc4[nH]c(=O)[nH]c4cc3c2)ccn1", "note": "[Example 26, 7-(2-aminopyridin-4-yl)-1,3-dihydro-2H-imidazo[4,5-b]quinolin-2-one]", "IC50": 74.6}
{"smiles": "N#Cc1ccc(N2CCc3nc4[nH]c(=O)[nH]c4cc3C2)c(F)c1", "note": "[Example 52, 7-(2-fluoro-4-cyanophenyl)-1,3,5,6,7,8-hexahydro-2H-imidazo[4,5-b][1,6]naphthyridin-2-one]", "IC50": 4.1}
{"smiles": "O=c1[nH]c2cc3c(Cl)c(-c4ccc(C(F)F)cc4)ccc3nc2[nH]1", "note": "[Example 67, 8-chloro-7-(4-(difluoromethyl)phenyl)-1,3-dihydro-2H-imidazo[4,5-b]quinolin-2-one]", "IC50": 0.4}
